In patent US10703755B2, “Substituted purine derivative” (SUMITOMO DAINIPPON PHARMA CO., LTD., priority 2016, dated 2020):

Molecular target: human TLR7 (Homo sapiens (Human), UniProt Q9NYK1)
Assay: Test for evaluating the inhibition of the activation of human TLR7 (SEAP reporter, TLR7/NF-κB/SEAPorter HEK293 cell)
Type: cell-based
Settings: R-848 200 nmol/L; for inhibitory effect against TLR7 in the test for evaluating inhibition of the activation of TLR7: SEAP activity, result in words; for IC50: SEAP reporter
How it was run: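 The readout is secreted alkaline phosphatase under NF-κB response-element control in TLR7/NF-κB/SEAPorter HEK293 cells, which stably express full-length human TLR7. Cells were plated at 5×10^4 per well and grown overnight at 37° C, 5% CO2, in DMEM/10% FBS/blasticidin.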

human TLR7, sequence (Q9NYK1 27-1049): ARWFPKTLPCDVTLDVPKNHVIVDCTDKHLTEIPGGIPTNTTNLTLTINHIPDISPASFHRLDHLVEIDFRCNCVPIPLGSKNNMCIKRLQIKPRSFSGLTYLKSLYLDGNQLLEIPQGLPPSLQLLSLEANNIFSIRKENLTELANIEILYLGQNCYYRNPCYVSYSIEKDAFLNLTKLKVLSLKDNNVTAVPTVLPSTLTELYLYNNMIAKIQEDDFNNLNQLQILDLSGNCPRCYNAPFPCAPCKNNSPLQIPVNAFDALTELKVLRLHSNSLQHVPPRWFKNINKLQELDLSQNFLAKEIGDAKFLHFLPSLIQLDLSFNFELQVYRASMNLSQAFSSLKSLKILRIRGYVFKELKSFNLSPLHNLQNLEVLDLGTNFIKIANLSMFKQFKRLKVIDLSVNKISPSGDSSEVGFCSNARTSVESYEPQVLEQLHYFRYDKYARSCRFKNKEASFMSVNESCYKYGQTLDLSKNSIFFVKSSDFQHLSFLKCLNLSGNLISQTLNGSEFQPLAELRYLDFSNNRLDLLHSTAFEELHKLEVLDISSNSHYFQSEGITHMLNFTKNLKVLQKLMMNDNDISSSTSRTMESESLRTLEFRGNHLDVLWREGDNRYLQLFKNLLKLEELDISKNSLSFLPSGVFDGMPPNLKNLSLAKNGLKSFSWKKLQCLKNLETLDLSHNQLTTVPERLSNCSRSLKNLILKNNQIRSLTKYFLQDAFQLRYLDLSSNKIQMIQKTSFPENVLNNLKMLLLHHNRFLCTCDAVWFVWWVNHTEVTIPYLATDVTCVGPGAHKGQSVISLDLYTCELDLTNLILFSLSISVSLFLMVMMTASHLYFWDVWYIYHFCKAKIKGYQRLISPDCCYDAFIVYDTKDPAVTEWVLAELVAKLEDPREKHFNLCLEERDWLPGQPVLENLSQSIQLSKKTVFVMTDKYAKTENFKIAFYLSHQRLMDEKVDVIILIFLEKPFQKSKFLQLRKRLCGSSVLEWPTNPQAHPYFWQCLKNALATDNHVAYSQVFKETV

Compound	inhibitory effect against TLR7 in the test for evaluating inhibition of the activation of TLR7	IC50
CCOc1nc(C)c2nc(-c3cncc(C#N)c3)n(Cc3ccc(CN4C[C@@H]5C[C@H]4CN5C)cc3F)c2n1 [Example 311, 5-[2-ethoxy-9-(2-fluoro-4-{[(1S,4S)-5-methyl-2,5-diazabicyclo[2.2.1]hept-2-yl]methyl}benzyl)-6-methyl-9H-purin-8-yl]pyridine-3-carbonitrile]	potent inhibitory effect against TLR7	11 nM
CCOc1nc(C)c2nc(-c3cncnc3)n(Cc3ccc(CN4C[C@@H]5C[C@H]4CN5C)cc3F)c2n1 [Example 312, 2-ethoxy-9-(2-fluoro-4-{[(1S,4S)-5-methyl-2,5-diazabicyclo[2.2.1]hept-2-yl]methyl}benzyl)-6-methyl-8-(pyrimidin-5-yl)-9H-purine]	potent inhibitory effect against TLR7	25 nM
CCOc1nc(C)c2nc(-c3cncc(F)c3)n(Cc3ccc(CN4C[C@@H]5C[C@H]4CN5C)cc3F)c2n1 [Example 313, 2-ethoxy-9-(2-fluoro-4-{[(1S,4S)-5-methyl-2,5-diazabicyclo[2.2.1]hept-2-yl]methyl}benzyl)-8-(5-fluoropyridin-3-yl)-6-methyl-9H-purine]	potent inhibitory effect against TLR7	8 nM
COc1nc(C)c2nc(-c3cncc(F)c3)n(Cc3ccc(C4CN5CCC4CC5)cc3F)c2n1 (stereo not drawn) [Example 314]	potent inhibitory effect against TLR7	8 nM
CCOc1nc(C)c2nc(-c3cncc(F)c3)n(Cc3cc(OC)c(C4CN5CCC4CC5)cc3F)c2n1 (stereo not drawn) [Example 317]		1610 nM
COc1nc(C)c2nc(-c3cncc(C#N)c3)n(Cc3ccc(O[C@@H]4CN5CCC4CC5)cc3F)c2n1 [Example 322, 5-(9-{4-[(3S)-1-azabicyclo[2.2.2]oct-3-yloxy]-2-fluorobenzyl}-2-methoxy-6-methyl-9H-purin-8-yl)pyridine-3-carbonitrile]	potent inhibitory effect against TLR7	13 nM
COc1nc(C)c2nc(-c3cncnc3)n(Cc3ccc(O[C@@H]4CN5CCC4CC5)cc3F)c2n1 [Example 323, 9-{4-[(3S)-1-azabicyclo[2.2.2]oct-3-yloxy]-2-fluorobenzyl}-2-methoxy-6-methyl-8-(pyrimidin-5-yl)-9H-purine]	potent inhibitory effect against TLR7	70 nM
CCOc1nc(C)c2nc(-c3cncc(F)c3)n(Cc3ccc(Br)cc3OC)c2n1 [Example 325]		1520 nM
COc1nc(C)c2nc(-c3cncc(F)c3)n(Cc3cc(Br)ccc3F)c2n1 [Example 326]		389 nM
CCOc1nc(C)c2nc(-c3cncc(F)c3)n(Cc3ccc(C4CN5CCC4CC5)nc3OC)c2n1 (stereo not drawn) [Example 327]	potent inhibitory effect against TLR7	23 nM
COc1nc(C)c2nc(-c3cnc(C)nc3)n(Cc3ccc(OC4CN5CCC4CC5)cc3F)c2n1 (stereo not drawn) [Example 329]		120 nM
CCOc1nc(C)c2nc(-c3cncc(F)c3)n(Cc3cnc(C4CN5CCC4CC5)cc3C)c2n1 (stereo not drawn) [Example 330]		213 nM
COc1nc(C)c2nc(-c3cncc(F)c3)n(Cc3ccc(Br)c(F)c3)c2n1 [Example 332]		6480 nM
COc1nc(C)c2nc(-c3cncc(F)c3)n(Cc3ccc(Br)cc3F)c2n1 [Example 337]		1340 nM
CCOc1nc(C)c2nc(-c3cncc(F)c3)n(Cc3cnc(Cl)c(F)c3)c2n1 [Example 338]		667 nM
CCOc1nc(C)c2nc(-c3cncc(F)c3)n(Cc3ccc(Br)cc3C#N)c2n1 [Example 339]		160 nM
COc1nc(C)c2nc(-c3cncc(C#N)c3)n(Cc3ccc(C4CN5CCC4CC5)cc3F)c2n1 (stereo not drawn) [Example 340]	potent inhibitory effect against TLR7	26 nM
COc1nc(C)c2nc(-c3cncc(F)c3)n(Cc3ccc(OS(C)(=O)=O)cc3F)c2n1 [Example 342]		816 nM
COc1nc(C)c2nc(-c3cncc(C#N)c3)n(Cc3ccc(C4CCNCC4)cc3F)c2n1 [Example 343]	potent inhibitory effect against TLR7	67 nM
COc1nc(C)c2nc(-c3cccc(C#N)c3)n(Cc3ccc(C4CN5CCC4CC5)cc3F)c2n1 (stereo not drawn) [Example 344, 3-{9-[4-(1-azabicyclo[2.2.2]oct-3-yl)-2-fluorobenzyl]-2-methoxy-6-methyl-9H-purin-8-yl}benzonitrile]	potent inhibitory effect against TLR7	12 nM
COc1nc(C)c2nc(-c3cccnc3)n(Cc3ccc(C4CCNCC4)cc3F)c2n1 [Example 345]	potent inhibitory effect against TLR7	36 nM
COc1nc(C)c2nc(-c3cncnc3)n(Cc3ccc(C4CN5CCC4CC5)cc3F)c2n1 (stereo not drawn) [Example 346]	potent inhibitory effect against TLR7	19 nM
COc1nc(C)c2nc(-c3ccncc3)n(Cc3ccc(C4CN5CCC4CC5)cc3F)c2n1 (stereo not drawn) [Example 347]	potent inhibitory effect against TLR7	35 nM
COc1nc(C)c2nc(-c3cnc(C)nc3)n(Cc3ccc(C4CN5CCC4CC5)cc3F)c2n1 (stereo not drawn) [Example 348]	potent inhibitory effect against TLR7	92 nM
CCOc1nc(C)c2nc(-c3cncc(F)c3)n(Cc3ccc(C4=CN5CCC4CC5)cn3)c2n1 [Example 352, 9-{[5-(1-Azabicyclo[2.2.2]oct-2-en-3-yl)pyridin-2-yl]methyl}-2-ethoxy-8-(5-fluoropyridin-3-yl)-6-methyl-9H-purine]		505 nM

Compound	inhibitory effect against TLR7 in the test for evaluating inhibition of the activation of TLR7	IC50
COc1nc(C)c2nc(-c3cncc(F)c3)n(Cc3ccc(C4=CN5CCC4CC5)cn3)c2n1 [Example 353]		504 nM
CCOc1nc(C)c2nc(-c3cncc(F)c3)n(Cc3ccc(C4=CN5CCC4CC5)cc3OC)c2n1 [Example 354]		36 nM
CCOc1nc(C)c2nc(-c3cncc(F)c3)n(Cc3cnc(C4=CN5CCC4CC5)cc3OC)c2n1 [Example 355]		1600 nM
CCOc1nc(C)c2nc(-c3cncc(F)c3)n(Cc3ccc(C4=CN5CCC4CC5)cc3OCC)c2n1 [Example 356]		463 nM
COc1nc(C)c2nc(-c3cncc(F)c3)n(Cc3ccc(C4=CN5CCC4CC5)c(F)c3)c2n1 [Example 357]		62 nM
Cc1nc(O)nc2c1nc(-c1cncc(F)c1)n2Cc1ccc(C2=CN3CCC2CC3)c(F)c1 [Example 358]		18 nM
CCOc1nc(C)c2nc(-c3cncc(F)c3)n(Cc3ncc(C4=CN5CCC4CC5)cc3F)c2n1 [Example 359]		855 nM
CCOc1nc(C)c2nc(-c3cncc(F)c3)n(Cc3ccc(C4=CN5CCC4CC5)nc3C(F)(F)F)c2n1 [Example 360]		1720 nM
CCOc1nc(C)c2nc(-c3cncc(F)c3)n(Cc3ccc(C4=CN5CCC4CC5)nc3C#N)c2n1 [Example 361]		582 nM
CCOc1nc(C)c2nc(-c3cncc(F)c3)n(Cc3ccc(C4=CN5CCC4CC5)cc3C#N)c2n1 [Example 363]		592 nM
COc1nc(C)c2nc(-c3cncc(F)c3)n(Cc3cccc(C4=CN5CCC4CC5)c3)c2n1 [Example 364]		11 nM
CCOc1nc(C)c2nc(-c3cncc(F)c3)n(Cc3cnc(CC4CCN(C(=O)OC(C)(C)C)CC4)cc3OC)c2n1 [Example 369]		1690 nM
CCOc1nc(C)c2nc(-c3cncc(F)c3)n(Cc3ccc(C4CN5CCC4CC5)cn3)c2n1 (stereo not drawn) [Example 370, 9-{[5-(1-Azabicyclo[2.2.2]oct-3-yl)pyridin-2-yl]methyl}-2-ethoxy-8-(5-fluoropyridin-3-yl)-6-methyl-9H-purine]		117 nM
COc1nc(C)c2nc(-c3cncc(F)c3)n(Cc3ccc(C4CN5CCC4CC5)cn3)c2n1 (stereo not drawn) [Example 371]		264 nM
CCOc1nc(C)c2nc(-c3cncc(F)c3)n(Cc3ccc(C4CN5CCC4CC5)cc3OC)c2n1 (stereo not drawn) [Example 372, 9-[4-(1-azabicyclo[2.2.2]oct-3-yl)-2-methoxybenzyl]-2-ethoxy-8-(5-fluoropyridin-3-yl)-6-methyl-9H-purine]	potent inhibitory effect against TLR7	11 nM
CCOc1nc(C)c2nc(-c3cncc(F)c3)n(Cc3ccccc3OC)c2n1 [Example 373]		209 nM
CCOc1nc(C)c2nc(-c3cncc(F)c3)n(Cc3cnc(C4CN5CCC4CC5)cc3OC)c2n1 (stereo not drawn) [Example 374]		1630 nM
CCOc1nc(C)c2nc(-c3cncc(F)c3)n(Cc3cnc(C4CCN(C)CC4)cc3OC)c2n1 [Example 375]		199 nM
CCOc1nc(C)c2nc(-c3cncc(F)c3)n(Cc3ccc(C4CN5CCC4CC5)cc3OCC)c2n1 (stereo not drawn) [Example 376]	potent inhibitory effect against TLR7	84 nM
COc1nc(C)c2nc(-c3cncc(F)c3)n(Cc3ccc(C4CN5CCC4CC5)c(F)c3)c2n1 (stereo not drawn) [Example 377, 9-[4-(1-azabicyclo[2.2.2]oct-3-yl)-3-fluorobenzyl]-8-(5-fluoropyridin-3-yl)-2-methoxy-6-methyl-9H-purine]	potent inhibitory effect against TLR7	7 nM
CCOc1nc(C)c2nc(-c3cncc(F)c3)n(Cc3ncc(C4CN5CCC4CC5)cc3F)c2n1 (stereo not drawn) [Example 379]		506 nM
COc1nc(C)c2nc(-c3cccnc3)n(Cc3ccc(C4CN5CCC4CC5)c(F)c3)c2n1 (stereo not drawn) [Example 380]		225 nM
CCOc1nc(C)c2nc(-c3cncc(F)c3)n(Cc3ccc(C4CN5CCC4CC5)nc3C(F)(F)F)c2n1 (stereo not drawn) [Example 381]		1390 nM
CCOc1nc(C)c2nc(-c3cncc(F)c3)n(Cc3ccc(C4CN5CCC4CC5)nc3C#N)c2n1 (stereo not drawn) [Example 382]		575 nM
